From BindingDB's records for patent US12319655 (Deciphera Pharmaceuticals, 2025)

What was measured:
[1] = target: T1, RAF proto-oncogene serine/threonine-protein kinase [306-648,Y340D,Y341D] (Homo sapiens, UniProt P04049, Y340D/Y341D); experiment: Biochemical Assay for C-Raf (1)
T1 construct: 306-648
Protocol: (§1) Activity of C-Raf kinase (SEQ. ID NO: 3) was determined spectroscopically using a coupled pyruvate kinase/lactate dehydrogenase assay that continuously monitors the ATP hydrolysis-dependent oxidation of NADH (e.g., Schindler et al., Science, 2000, 289, 1938-1942). Assays were conducted in 384-well plates (100 μL final volume) using 0.43 nM C-Raf (Sigma), 1.5 units pyruvate kinase, 2.1 units lactate dehydrogenase, 1 mM phosphoenol pyruvate, 0.28 mM NADH, 30.1 nM MEK (SignalChem), and 1 mM ATP in assay buffer (100 mM Tris, Ph 7.5, 15 mM MgCl2, 0.5 mM DTT, 0.1% octyl-glucoside, 0.002% (w/v) BSA, and 0.002% Triton X-100). Inhibition of C-Raf was measured by adding serial diluted test compound (final assay concentration of 1% DMSO). A decrease in absorption at 340 nm was monitored continuously for 6 h at 30° C. on a multi-mode microplate reader (BioTek). The reaction rate was calculated using the 4 to 5 h time frame. The reaction rate at each concentration of compound was converted to percent inhibition using controls (i.e., reaction with no test compound and reaction with a known inhibitor) and IC50 values were calculated by fitting a four-parameter sigmoidal curve to the data using Prism (GraphPad software).

[2] = target: T2, Serine/threonine-protein kinase B-raf [416-766,V600E] (Homo sapiens, UniProt P15056, V600E); experiment: Biochemical Assay for B-Raf (V600E) (1)
T2 construct: 416-766
T2 sequence (P15056 416-766 V600E): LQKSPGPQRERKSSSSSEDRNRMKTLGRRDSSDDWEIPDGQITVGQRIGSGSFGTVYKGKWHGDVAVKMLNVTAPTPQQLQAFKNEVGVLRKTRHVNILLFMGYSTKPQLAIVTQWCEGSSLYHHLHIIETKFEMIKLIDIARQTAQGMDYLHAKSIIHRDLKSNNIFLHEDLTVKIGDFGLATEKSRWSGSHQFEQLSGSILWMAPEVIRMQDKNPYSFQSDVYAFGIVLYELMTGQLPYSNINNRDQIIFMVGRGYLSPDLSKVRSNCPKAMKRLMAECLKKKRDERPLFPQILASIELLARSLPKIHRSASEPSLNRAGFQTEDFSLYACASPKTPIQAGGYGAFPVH
Protocol: Activity of B-Raf (V600E) (SEQ. ID NO: 4) kinase was determined spectroscopically using a coupled pyruvate kinase/lactate dehydrogenase assay that continuously monitors the ATP hydrolysis-dependent oxidation of NADH (e.g., Schindler et al., Science, 2000, 289, 1938-1942). Assays were conducted in 384-well plates (100 μL final volume) using 0.03 nM B-Raf (SignalChem), 1.5 units pyruvate kinase, 2.1 units lactate dehydrogenase, 1 mM phosphoenol pyruvate, 0.28 mM NADH, 30.1 nM MEK (SignalChem), and 1 mM ATP in assay buffer (100 mM Tris, Ph 7.5, 15 mM MgCl2, 0.5 mM DTT, 0.1% octyl-glucoside, 0.002% (w/v) BSA, and 0.002% Triton X-100). Inhibition of B-Raf (V600E) was measured by adding serial diluted test compound (final assay concentration of 1% DMSO). A decrease in absorption at 340 nm was monitored continuously for 6 h at 30° C. on a multi-mode microplate reader (BioTek). The reaction rate was calculated using the 3 to 4 h time frame. The reaction rate at each concentration of compound was converted to percent inhibition using controls (i.e., reaction with no test compound and reaction with a known inhibitor) and IC50 values were calculated by fitting a four-parameter sigmoidal curve to the data using Prism (GraphPad software).

[3] = target: T3, Serine/threonine-protein kinase B-raf [416-766] (UniProt P15056); experiment: Biochemical Assay for B-Raf (1)
T3 construct: 416-766
T3 sequence (P15056 416-766): as the sequence (P15056 416-766 V600E) above, with E185V counted along it
Protocol: as §1, with “B-Raf” for “C-Raf”, “2)” for “3)”, “0.13” for “0.43”

T1 sequence (P04049 306-648 Y340D/Y341D): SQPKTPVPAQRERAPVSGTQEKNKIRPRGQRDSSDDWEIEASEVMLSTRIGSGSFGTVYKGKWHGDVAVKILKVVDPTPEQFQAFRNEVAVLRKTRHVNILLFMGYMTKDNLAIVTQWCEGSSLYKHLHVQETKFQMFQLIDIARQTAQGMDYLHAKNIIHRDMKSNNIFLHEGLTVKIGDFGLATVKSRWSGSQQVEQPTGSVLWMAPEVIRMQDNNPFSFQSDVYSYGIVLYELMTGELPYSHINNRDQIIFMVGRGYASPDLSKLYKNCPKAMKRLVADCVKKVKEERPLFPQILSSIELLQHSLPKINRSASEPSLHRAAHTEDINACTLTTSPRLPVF

Row | SMILES | IC50 [1] [nM] | IC50 [2] [nM] | IC50 [3] [nM]
1 | Cc1ccc(NC(=O)c2ccnc(C(F)(F)F)c2)cc1-c1cccc(-c2ccnc(NC(=O)C3CC3)c2)c1 [US12319655, Example 58] | < 100 | < 100 | 
2 | Cc1ccc(NC(=O)c2ccnc(C(C)(C)C#N)c2)cc1-c1ccnc(-c2ccncc2)c1 [US12319655, Example 55] | < 100 |  | < 100
3 | Cc1ccc(NC(=O)c2ccnc(C(F)(F)F)c2)cc1-c1cc(-c2ccnc(N)c2)n(C)c(=O)c1 [US12319655, Example 53] |  | < 100 | 
4 | Cc1ccc(NC(=O)c2cnnc(C3CC3)c2)cc1-c1nccc(-c2ccnc(NC(=O)C3CC3)c2)n1 [US12319655, Example 272] | < 100 |  | < 100
